US12465578B2, “Substituted alpha-ethyl phenylalkylamines” (Alexander Shulgin Research Institute, Inc., priority 2021, dated 2025)

Experiment: In vitro metabolic stability: percent of compound remaining in human liver microsomes
Format: in vitro ADME
Details: for Percent of Compound Remaining Over Time / Dunnett's Multiple Comparison Test Mean Diff. (percent remaining, 2C-B minus compound): human liver microsomes; for rate of metabolism compared with 2C-B: human liver microsomes, 15, 30, 45 and 60 minutes of incubation; for rate of metabolism compared with 2C-B / Dunnett's Multiple Comparison Test Mean Diff. (percent remaining, 2C-B minus compound): 2C-B as control drug; for Dunnett's Multiple Comparison Test Mean Diff. (percent remaining, 2C-B minus compound): one-way ANOVA with Dunnett's post-test
Experimental: A high-throughput assay is used to determine metabolic stability of disclosed compounds and undeuterated analogs thereof in various matrices, including human liver microsomes, using LCMS analysis to quantify the percent compound remaining after incubation. Briefly, the disclosed compound is mixed with liver microsomes and activated. Following this incubation, acetonitrile is added to terminate the reaction. Then, the samples are centrifuged and the supernatant is dried. The residue is reconstituted and analyzed using liquid chromatography-mass spectrometry. Pharmacokinetic parameters are calculated using a noncompartmental model. The half-life (t1/2) is estimated from the slope of the initial linear range of the logarithmic curve of compound remaining (%) versus time, assuming first order kinetics.
In one such assay of metabolic stability, percent of compound remaining was determined in human liver microsomes after 15, 30, 45, and 60 minutes of incubation, for 2C-B, 2C-B-2-OCD3 (compound I-B-31), and 2C-B-5-OCD3 (compound I-A-31).

SMILES	Percent of Compound Remaining Over Time (0 minutes of incubation)	Percent of Compound Remaining Over Time (15 minutes of incubation)	Percent of Compound Remaining Over Time (30 minutes of incubation)	Percent of Compound Remaining Over Time (45 minutes of incubation)	Percent of Compound Remaining Over Time (60 minutes of incubation)	rate of metabolism compared with 2C-B	Dunnett's Multiple Comparison Test Mean Diff. (percent remaining, 2C-B minus compound)
COc1cc(CCN)c(OC)cc1Br [Compound 2C-B, 2-(4-bromo-2,5-dimethoxyphenyl)ethanamine, reference compound]	100.0000%	104.3970%	109.8740%	105.1500%	116.6050%		
Cl.[2H]C([2H])([2H])Oc1cc(Br)c(OC)cc1CCN [Compound 2C-B-2-OCD3, 2-(4-bromo-5-methoxy-2-(methoxy-d3)phenyl)ethan-1-amine hydrochloride]	100.0000%	95.8357%	91.9169%	98.7307%	91.6972%	metabolized more quickly than 2C-B	11.57
Cl.[2H]C([2H])([2H])Oc1cc(CCN)c(OC)cc1Br [Compound 2C-B-5-OCD3, 2-(4-bromo-2-methoxy-5-(methoxy-d3)phenyl)ethan-1-amine hydrochloride]	100.0000%	96.2535%	90.6402%	90.7021%	86.9011%	metabolized more quickly than 2C-B	14.31
